Converted amounts (≈) assume the structure as drawn. Read-outs that look alike come from different tables or passages of the source.
Columns and labels:
HeLa cells [1] = test: Proliferative activity (colony counts) of cultured HeLa cells at different exposure times; format: cell-based; conditions: Homo sapiens; for IC50: read-out: ID50 (50% inhibition of colonies); for activity at 0.025 µg/mL: 0.025 μg/ml; for activity at 0.05 µg/mL: 0.05 μg/ml; for activity at 0.1 µg/mL: 0.1 μg/ml; for activity at 0.25 µg/mL: 0.25 μg/ml; for activity at 0.5 µg/mL: 0.5 μg/ml; for activity at 1 µg/mL: 1 μg/ml
Source text: (§1) Tests in vitro on the effect of compounds (VI) and (VII) on the micotic index and the proliferative activity of cultured HeLa cells at different exposure times. The results in Table 4 are expressed as a percent of the untreated controls. The ID50 represents the dose which gives a 50% inhibition of colonies.

[2] = Cell proliferation in cultured mice fibroblasts infected with Moloney Sarcoma Virus; format: cell-based, mouse; conditions: mouse, embryo fibroblasts; 3 days treatment; read-out: Cell Proliferation ID50 (B)
Description: (§2) The test compounds were evaluated on mouse embryo fibroblast cultures infected with MSV. After a treatment of three days, the inhibiting doses (ID50) were evaluated on cell proliferation and on MSV foci formation.
(§3) Effect of compounds (VI and (VII) on foci formation and on cell proliferation in cultured mice fibroblasts infected with Moloney Sarcoma Virus. (3 days treatment)

Moloney Sarcoma Virus = test: Foci formation by Moloney Sarcoma Virus in mouse embryo fibroblast cultures; format: cell-based; conditions: for IC50 / activity at 0.0062 µg/mL / activity at 0.025 µg/mL / activity at 0.1 µg/mL / activity at 0.4 µg/mL: Fibroblast, 72 h, 3 days treatment; for IC50: read-out: Foci Formation ID50 (A); for B/A: ratio ID50 cell proliferation (B) / ID50 foci formation (A), 4320 min; for activity at 0.0062 µg/mL: 0.0062 μg/ml; for activity at 0.0062 µg/mL / activity at 0.025 µg/mL / activity at 0.1 µg/mL / activity at 0.4 µg/mL: read-out: Foci Formation (% of controls); for activity at 0.025 µg/mL: 0.025 μg/ml; for activity at 0.1 µg/mL: 0.1 μg/ml; for activity at 0.4 µg/mL: 0.4 μg/ml
Description: as §2, §3

[3] = test system: single myocardial cells isolated from the hearts of newborn mice
Description: The cardiotoxic activity of compound (VI) was evaluated in vitro on single myocardial cells isolated by trypsinization from the hearts of newborn mice (Necco A., Dasdia T. IRCS, 2: 1293, 1974). After 3-4 days, the cell cultures, showing clusters of beating cells, are studied both as to frequency and rhythym.

cultured cells = test: Inhibition of cell mitosis and proliferation in cultured cells (summary); format: cell-based; conditions: cultured cells in vitro
Description: (§4) The antitumor activity of the novel antibiotic compounds of the invention, i.e., 4'-epi-daunomycin (VI) and 4'-epidaunomycin, β-anomer, (VII) was evaluated on several transplanted tumors in mice, and in in vitro tests, in comparison with the known antitumor agent daunomycin (IV).

oncogenic viruses = test: Cell transformation induced by oncogenic viruses (summary); format: cell-based
Description: as §4

ASCITES SARCOMA 180 = test: Action on ascites sarcoma 180 in mice; format: in vivo, mice (Swiss CD 1); conditions: for Average Survival Time (%): 1 day after inoculation, untreated = 100%
Description: The tests were carried out on groups of 10 female mice (Swiss CD 1). The compounds under examination were administered intraperitoneally in varying doses to the test animals 1 day after intraperitoneal inoculation with 1 × 10^6 tumor cells per animal. The average survival time is given in Table 1 as a percentage of the survival time of untreated animals, which is arbitrarily designated as 100%. Also given in Table 1 are the number of long term survivors.

[4] = test system: mouse embryo fibroblast cultures infected with MSV; test: Cell proliferation in cultured mice fibroblasts infected with Moloney Sarcoma Virus; format: cell-based; conditions: Mus musculus, Fibroblast, 72 h, 3 days treatment, read-out: Cell Proliferation (% of controls); for activity at 0.0062 µg/mL: 0.0062 μg/ml; for activity at 0.025 µg/mL: 0.025 μg/ml; for activity at 0.1 µg/mL: 0.1 μg/ml; for activity at 0.4 µg/mL: 0.4 μg/ml
Description: as §2, §3

TR[…] LEUKEMIA = test: Transplanted Gross leukemia in mice; format: in vivo, Inbred C3 H female mice; conditions: first to fifth day, control = 100
Source text: Inbred C3 H female mice were intravenously inoculated with a suspension of leukemia lymphonodes and spleen cells (2.5 × 10^6 leukemia cells/mouse) and treated, intravenously, from the first to the fifth day after inoculation with the compounds under examination.

HeLa cells [5] = test: Micotic index of cultured HeLa cells at different exposure times; format: cell-based; conditions: Homo sapiens; for activity at 0.025 µg/mL: 0.025 μg/ml; for activity at 0.05 µg/mL: 0.05 μg/ml; for activity at 0.1 µg/mL: 0.1 μg/ml; for activity at 0.25 µg/mL: 0.25 μg/ml; for activity at 0.5 µg/mL: 0.5 μg/ml; for activity at 1 µg/mL: 1 μg/ml
Source text: as §1

[6] = test system: a number of experimental tumors; test: Antitumor activity on experimental tumors in mice (summary); format: in vivo; conditions: mean survival time, non-toxic doses
Description: as §4

[7] = 2h, value marked * Metaphasic block

COc1cccc2c1C(=O)c1c(O)c3c(c(O)c1C2=O)C[C@@](O)(C(C)=O)C[C@@H]3O[C@H]1C[C@H](N)[C@H](O)[C@H](C)O1 [IV, 7-O-(3'-amino-2',3',6'-trideoxy-α-L-lyxohexopyranosyl)-daunomycin-one, reference compound]
IC50 (HeLa cells [1]; 2h exposure): 0.098 µg/mL (≈ 0.186 µM) | IC50 (HeLa cells [1]; 8h exposure): 0.036 µg/mL (≈ 0.0682 µM) | IC50 (HeLa cells [1]; 24h exposure): 0.021 µg/mL (≈ 0.0398 µM) | CC50 at 72 h [2]: 0.0086 µg/mL (≈ 0.0163 µM) | IC50 (Moloney Sarcoma Virus): 0.006 µg/mL (≈ 0.0114 µM) | B/A (Moloney Sarcoma Virus): 1.4

COc1cccc2c1C(=O)c1c(O)c3c(c(O)c1C2=O)C[C@@](O)(C(C)=O)C[C@@H]3O[C@H]1C[C@H](N)[C@@H](O)[C@H](C)O1 [VI, 7-0-(3'-amino-2',3',6'-trideoxy-α-L-arabinohexopyranosyl)-daunomycinone]
cardiotoxic activity [3]: lower than that of daunomycin (IV) | activity at 0.025 µg/mL (HeLa cells [1]; 2h): 113% | activity at 0.025 µg/mL (HeLa cells [1]; 8h): 88% | activity at 0.025 µg/mL (HeLa cells [1]; 24h): 48% | activity at 0.05 µg/mL (HeLa cells [1]; 2h): 115% | activity at 0.05 µg/mL (HeLa cells [1]; 8h): 56% | activity at 0.05 µg/mL (HeLa cells [1]; 24h): 23% | activity at 0.1 µg/mL (HeLa cells [1]; 2h): 77% | activity at 0.1 µg/mL (HeLa cells [1]; 8h): 23% | activity at 0.1 µg/mL (HeLa cells [1]; 24h): 3% | IC50 (HeLa cells [1]; 2h exposure): 0.16 µg/mL (≈ 0.303 µM) | IC50 (HeLa cells [1]; 8h exposure): 0.056 µg/mL (≈ 0.106 µM) | IC50 (HeLa cells [1]; 24h exposure): 0.027 µg/mL (≈ 0.0512 µM) | inhibition of cell mitosis and proliferative activity (cultured cells): powerful inhibitors of cell mitosis and proliferative activity in cultured cells in vitro | activity on cell transformation induced by oncogenic viruses (oncogenic viruses): substantial activity on cell transformation induced by oncogenic viruses | Long Term Survivors after 60 days (ASCITES SARCOMA 180; 0.22 mg/kg i.p.): 1/10 | Average Survival Time (%) (ASCITES SARCOMA 180; 0.22 mg/kg i.p.): 111.1% | Long Term Survivors after 60 days (ASCITES SARCOMA 180; 1.1 mg/kg i.p.): 1/10 | Average Survival Time (%) (ASCITES SARCOMA 180; 1.1 mg/kg i.p.): 120.8% | Long Term Survivors after 60 days (ASCITES SARCOMA 180; 5.7 mg/kg i.p.): 0/10 | Average Survival Time (%) (ASCITES SARCOMA 180; 5.7 mg/kg i.p.): 174.5% | activity at 0.0062 µg/mL [4]: 75% | activity at 0.025 µg/mL [4]: 23% | activity at 0.1 µg/mL [4]: 14% | activity at 0.4 µg/mL [4]: 1% | CC50 at 72 h [2]: 0.013 µg/mL (≈ 0.0246 µM) | Average Survival Time (%) (TR[…] LEUKEMIA; 1.5 mg/kg daily i.v.): 115% | Average Survival Time (%) (TR[…] LEUKEMIA; 2.25 mg/kg daily i.v.): 143% | Average Survival Time (%) (TR[…] LEUKEMIA; 3 mg/kg daily i.v.): 162% | Average Survival Time (%) (TR[…] LEUKEMIA; 3.75 mg/kg daily i.v.): 122% | Average Survival Time (%) (TR[…] LEUKEMIA; 4.5 mg/kg daily i.v.): 120% | activity at 0.025 µg/mL (HeLa cells [5]; [7]): 226% | activity at 0.025 µg/mL (HeLa cells [5]; 4h): 100% | activity at 0.025 µg/mL (HeLa cells [5]; 8h): 117% | activity at 0.05 µg/mL (HeLa cells [5]; [7]): 189% | activity at 0.05 µg/mL (HeLa cells [5]; 4h): 103% | activity at 0.05 µg/mL (HeLa cells [5]; 8h): 122% | activity at 0.1 µg/mL (HeLa cells [5]; 2h): 79% | activity at 0.1 µg/mL (HeLa cells [5]; 4h): 140% | activity at 0.1 µg/mL (HeLa cells [5]; 8h): 0% | activity at 0.0062 µg/mL (Moloney Sarcoma Virus): 51% | activity at 0.025 µg/mL (Moloney Sarcoma Virus): 0% | activity at 0.1 µg/mL (Moloney Sarcoma Virus): 0% | activity at 0.4 µg/mL (Moloney Sarcoma Virus): 0% | IC50 (Moloney Sarcoma Virus): 0.006 µg/mL (≈ 0.0114 µM) | B/A (Moloney Sarcoma Virus): 2.1 | antitumor activity in mice [6]: increase in the mean survival time at non-toxic doses

COc1cccc2c1C(=O)c1c(O)c3c(c(O)c1C2=O)C[C@@](O)(C(C)=O)C[C@@H]3O[C@@H]1C[C@H](N)[C@@H](O)[C@H](C)O1 [VII, 7-O-(3'-amino-2',3',6'-trideoxy-β-L-arabinohexopyranosyl)-daunomycinone]
activity at 0.25 µg/mL (HeLa cells [1]; 2h): 108% | activity at 0.25 µg/mL (HeLa cells [1]; 8h): 86% | activity at 0.25 µg/mL (HeLa cells [1]; 24h): 70% | activity at 0.5 µg/mL (HeLa cells [1]; 2h): 101% | activity at 0.5 µg/mL (HeLa cells [1]; 8h): 37% | activity at 0.5 µg/mL (HeLa cells [1]; 24h): 18% | activity at 1 µg/mL (HeLa cells [1]; 2h): 98% | activity at 1 µg/mL (HeLa cells [1]; 8h): 17% | activity at 1 µg/mL (HeLa cells [1]; 24h): 6% | IC50 (HeLa cells [1]; 2h exposure): > 1 µg/mL | IC50 (HeLa cells [1]; 8h exposure): 0.47 µg/mL (≈ 0.891 µM) | IC50 (HeLa cells [1]; 24h exposure): 0.33 µg/mL (≈ 0.626 µM) | inhibition of cell mitosis and proliferative activity (cultured cells): powerful inhibitors of cell mitosis and proliferative activity in cultured cells in vitro | activity on cell transformation induced by oncogenic viruses (oncogenic viruses): substantial activity on cell transformation induced by oncogenic viruses | Long Term Survivors after 60 days (ASCITES SARCOMA 180; 0.26 mg/kg i.p.): 0/10 | Average Survival Time (%) (ASCITES SARCOMA 180; 0.26 mg/kg i.p.): 96.6% | Long Term Survivors after 60 days (ASCITES SARCOMA 180; 1.3 mg/kg i.p.): 1/10 | Average Survival Time (%) (ASCITES SARCOMA 180; 1.3 mg/kg i.p.): 114.8% | Long Term Survivors after 60 days (ASCITES SARCOMA 180; 6.7 mg/kg i.p.): 1/10 | Average Survival Time (%) (ASCITES SARCOMA 180; 6.7 mg/kg i.p.): 118.6% | activity at 0.0062 µg/mL [4]: 87% | activity at 0.025 µg/mL [4]: 80% | activity at 0.1 µg/mL [4]: 28% | activity at 0.4 µg/mL [4]: 14% | CC50 at 72 h [2]: 0.064 µg/mL (≈ 0.121 µM) | Average Survival Time (%) (TR[…] LEUKEMIA; 1.5 mg/kg daily i.v.): 106% | Average Survival Time (%) (TR[…] LEUKEMIA; 2.25 mg/kg daily i.v.): 102% | Average Survival Time (%) (TR[…] LEUKEMIA; 3 mg/kg daily i.v.): 121% | activity at 0.25 µg/mL (HeLa cells [5]; 2h): 137% | activity at 0.25 µg/mL (HeLa cells [5]; 4h): 103% | activity at 0.25 µg/mL (HeLa cells [5]; 8h): 85% | activity at 0.5 µg/mL (HeLa cells [5]; 2h): 95% | activity at 0.5 µg/mL (HeLa cells [5]; 4h): 67% | activity at 0.5 µg/mL (HeLa cells [5]; 8h): 88% | activity at 1 µg/mL (HeLa cells [5]; 2h): 52% | activity at 1 µg/mL (HeLa cells [5]; 4h): 40% | activity at 1 µg/mL (HeLa cells [5]; 8h): 0% | activity at 0.0062 µg/mL (Moloney Sarcoma Virus): 48% | activity at 0.025 µg/mL (Moloney Sarcoma Virus): 44% | activity at 0.1 µg/mL (Moloney Sarcoma Virus): 5% | activity at 0.4 µg/mL (Moloney Sarcoma Virus): 0% | IC50 (Moloney Sarcoma Virus): 0.01 µg/mL (≈ 0.019 µM) | B/A (Moloney Sarcoma Virus): 6.4 | antitumor activity in mice [6]: increase in the mean survival time at non-toxic doses

Source: US4039663A, “Daunomycins, process for their uses and intermediates” (Societa' Farmaceutici Italia S.p.A., priority 1975, dated 1977)
